Drawing on US12060356B2, “7 (methylamino)pyrazolo[1,5-a]pyrimidine-3-carboxamide derivatives” (Eli Lilly and Company, priority 2018, dated 2024), this text covers IC50 for two compounds.

Experiment [1] deals with T1, pseudokinase domain (JH2) of human TYK2 (Homo sapiens, UniProt P29597).
T1 construct: The pseudokinase domain (JH2) of human JAK; made in house
Kind of experiment: TYK2-JH2 Tracer Binding Assay. The conditions noted are these: His-tagged TYK2-JH2 0.200 nM, Tracer 2.00 nM, TR-FRET, 30 minutes at room temperature. The source says: The pseudokinase domain (JH2) of human JAK (Janus family of cytoplasmic tyrosine kinases) family tyrosine kinase 2 (TYK2) (Genbank NP_003322) with an N-terminal His6 tag is expressed in baculovirus and purified by HisPur Ni-NTA affinity and Superdex 200 size-exclusion chromatography. The compound prepared in Preparation 17, a conjugate of Alexa Fluor 647 dye (Thermo Fisher Scientific) and a suitable TYK2 JH2 binder, is referred to herein as “the Tracer”. A 3 fold, 10 point serial dilution of compound, Example 1 and Example 2, are prepared in 100% DMSO and 50 nL/well transferred to a Proxiplate-384F white plate (PerkinElmer 6008280) using acoustic liquid handling. Control wells used to determine percent inhibition contained 100% DMSO (50 nL) and either assay buffer containing the Tracer (2.00 nM final concentration) (min, low FRET) or diluted TYK2-JH2 enzyme (0.200 nM final concentration) and the Tracer (2.00 nM final concentration) (max, high FRET). […] After 30 minutes, the plate is counted on a PerkinElmer Envision with the following settings: Excitation (340 nm), Tracer Emission (665 nm) and LanthaScreen Eu-anti-His Antibody Emission (615 nm). The ratio of Tracer Emission (665 nm) over LanthaScreen Eu-anti-His Antibody Emission (615 nm) is determined.
(In general: TR-FRET usually uses a lanthanide donor and a delayed reading to cut background.)

The subject of experiment [2] is IFNα signaling through pSTAT1 in TF1 cells. In words: Inhibition of IFNα Signaling Through pSTAT1 in TF1 Cells. Conditions: Homo sapiens, TF-1, 1 hr preincubation, 10 ng/mL IFNα2 for 20 minutes, p-Stat1 (Tyr701) AlphaLISA, GeoMetric mean (SEM, n). It counts as cell-based. The procedure:
TF1 cells (ATCC, CL-2003) are grown in RPMI 1640 (GIBCO) supplemented with 10% dialyzed FBS, 0.1 mg/mL Ampicillin and 2 ng/mL granulocyte macrophage colony stimulating factor. TF1 cells (100 K per well) are seeded in a 96-well poly-D-lysine coated plates in serum-free DMEM and incubated overnight at 37° C. under 5% CO2. Example 1 is serially diluted in DMSO, added to the cells, and incubated at 37° C. for 1 hr. Cells are then stimulated with 10 ng/mL IFNα2 at 37° C. for 20 minutes. After removing the medium, the cells are lysed in buffer containing Halt protease and phosphatase inhibitor cocktail (Thermo Scientific #78441) at room temperature for 30 minutes. The amount of p-Stat1 (Tyr701) is quantified as light emission at 615 nm using the AlphaLISA SureFire Ultra p-Stat1 (Tyr701) assay kit (Perkin Elmer #ALSU-PST1-A50K) following the vendor's recommended protocol. Percent inhibition at each inhibitor concentration is calculated and fit to the four parameter nonlinear logistic equation using Genedata Screener® to give an IC50 for the compound of Example 1 of 0.007 μM (0.002 μM, n=4) and for the compound of Example 2 of 0.100 μM (0.014 μM, n=4) expressed as GeoMetric means with the standard error of the mean (SEM).

Experiment [3] has as its system IL-23 signaling (STAT3 phosphorylation) in Kit225 cells. Kind of experiment: IL23 pSTAT3 AlphaLISA Assay. It counts as cell-based. Conditions: 1 hour preincubation, IL23 25 ng/mL for 30 minutes, GeoMetric mean (SEM, n), read-out: relative IC50. As to the method: IL2-dependent Kit225 cells (University of Texas MD Anderson Cancer Center) expressing endogenous IL23 receptors are stably transduced with the Lenti STAT3 Reporter linked to firefly luciferase (SABiosciences CLS-6028L). These cells are used to monitor TYK2 activity by quantifying gene expression caused by STAT3 phosporylation following induction by IL23 in the presence of IL2 using AlphaLISA technology (TGR Biosciences ALSU-TST3-A50K). The cells are grown in RPMI 1640 (Gibco 22400) supplemented with 10% FBS (Invitrogen 10082), 1× Pen/Strep (Gibco 15140-122), 200 ng/ml Puromycin (Sigma P9620), and fresh 10 ng/ml recombinant human IL2 (R&D Systems 202-IL-50).
For assay preparation, cells are dispensed into Biocoat black poly-d-lysine coated clear bottom 384-well plates (Becton Dickinson Bio-Coat 35-4640) in DMEM (Sigma D5796) at 300,000 cells/well and allowed to incubate overnight at 37° C. Compounds solubilized in DMSO are serially diluted 1:3 to produce a 10-point concentration response curve (final DMSO=0.1%). Cells are pre-incubated with Example 1 for 1 hour at 37° C., then stimulated with IL23 (25 ng/mL final) for 30 minutes. […] The AlphaLISA reaction is performed following the vendor's recommended protocol, and the […] are measured using an Envision plate reader (Perkin Elmer).

T1 sequence (P29597 589-875 limits assumed): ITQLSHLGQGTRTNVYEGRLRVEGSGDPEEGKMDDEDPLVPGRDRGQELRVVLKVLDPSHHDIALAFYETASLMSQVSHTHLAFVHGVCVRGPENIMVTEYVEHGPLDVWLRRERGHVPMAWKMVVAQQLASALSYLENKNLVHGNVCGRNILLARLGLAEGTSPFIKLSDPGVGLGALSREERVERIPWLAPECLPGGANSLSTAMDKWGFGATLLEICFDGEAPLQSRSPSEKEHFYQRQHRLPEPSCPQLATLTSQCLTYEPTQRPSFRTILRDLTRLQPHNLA

With `CNc1cc(Nc2cccc3c2OCCC3)nc2c(C(=O)N[C@@H]3CCN(C)C3=O)cnn12` [Example 1, 5-(Chroman-8-ylamino)-7-(methylamino)-N-[(3R)-1-methyl-2-oxo-pyrrolidin-3-yl]pyrazolo[1,5-a]pyrimidine-3-carboxamide], the IC50 in experiment [1] was < 0.254 nM; in experiment [2], 7 nM; in experiment [3], 7 nM.

As to `CNc1cc(Nc2cccc(C)n2)nc2c(C(=O)N[C@@H]3CCN(C)C3=O)cnn12` [Example 2, 7-(Methylamino)-N-[(3R)-1-methyl-2-oxo-pyrrolidin-3-yl]-5-[(6-methyl-2-pyridyl)amino]pyrazolo[1,5-a]pyrimidine-3-carboxamide], the IC50 is < 0.254 nM in experiment [1], 100 nM in experiment [2] and 66 nM in experiment [3].

Usually IC50 stands for the point on the concentration scale where inhibition reaches its midpoint.
